From patent US7973219B2, “Method for producing transgenic plants resistant to weed control compounds which disrupt the porphyrin pathways of plants” (Sumitomo Chemical Company, Limited, priority 1998, dated 2011) come the findings set out here.

Test [1] concerns tobacco into which bchH gene was introduced. Description: Leaf piece chlorophyll test, tobacco into which bchH gene was introduced. The test is classed as in vivo. Particulars: Nicotiana tabacum, read-out: Resistant level to test compound; for activity at 0.3 ppm: 0.30 ppm. Here is the method: (§1) Then, according to the method described in Manual for Gene Manipulation of Plant (by Hirofumi UCHIMIYA, Kodan-sha Scientific, 1992), the gene was introduced into tobacco. Agrobacterium strain bearing plasmid pBIBCH was cultured at 28° C. overnight in LB medium and then leaf pieces of tobacco cultured sterilely were dipped in the liquid culture medium. The leaf pieces were cultured at room temperature for 2 days in Murashige-Skoog medium (MS-medium, described in Murasige T. and Skoog F., Physiol. Plant. (1962) 15, p 473) containing 0.8% agar, 0.1 mg/liter naphthalene acetic acid and 1.0 mg/liter benzyl aminopurine. Then, the leaf pieces were washed with sterilized water and cultured for 7 days on MS medium containing 0.8% agar, 0.1 mg/liter naphthalene acetic acid, 1.0 mg/liter benzyl aminopurine and 500 μg/ml cefotaxime. The leaf pieces were transplanted onto MS medium containing 0.8% agar, 0.1 mg/liter naphthalene acetic acid, 1.0 mg/liter benzyl aminopurine, 500 μg/ml cefotaxime and 100 μg/ml kanamycin (hereinafter referred to as selective MS medium) and cultured on the medium continuously for 4months with transplanting the tobacco leaf pieces onto fresh selective MS medium every 1 month. During culture, stem-leaf differentiated shoots were appeared from the tobacco leaf pieces, these shoots were transplanted to MS medium containing 0.8% agar, 300 μg/ml cefotaxime and 50 μg/ml kanamycin to induce roots to obtain regenerated plants. The resultant regenerated plant was transplanted and cultured on MS medium 0.8% agar and 50 μg/ml kanamycin to obtain tobacco plant into which bchH gene was introduced. Similarly, tobacco leaf pieces were infected with Agrobacterium strain bearing pNO to obtain regenerated plant from the tobacco leaf pieces and tobacco plant (hereinafter referred to as control recombinant tobacco).
(§2) The tobacco leaves into which bchH gene was introduced and control recombinant tobacco leaves obtained in Example 5 were collected and each leaf was divided into the right and left equivalent pieces along the main vein, respectively. To one piece was applied an aqueous solution containing 0.3 ppm PPO inhibitory-type herbicidal compound of Structure 8, while, to the other piece was not applied the compound. These leaf pieces were placed on MS medium containing 0.8% agar and allowed to stand at room temperature for 7 days in light place. Then, each leaf piece was ground with pestle and mortar in 5 ml of 80% aqueous acetone solution to extract chlorophyll. The extract liquid was diluted with 80% aqueous acetone solution and the absorbance was measured at 750 nm, 663 nm and 645 nm to calculate total chlorophyll content according to the method described by Macknney G., J. Biol. Chem. (1941) 140, p 315. The results obtained from 4 clones of tobacco into which bchH gene was introduced (BCH1 to 4) and control recombinant tobacco is shown in Table 4. In the table, the resistant level to the herbicidal compound was represented by percentages of the total chlorophyll content of leaf pieces treated with herbicidal compound to that of untreated leaf pieces.
(§3) The tobacco clone into which bchH gene was introduced and control recombinant tobacco were also treated in the same manner with the solution containing PPO inhibitory-type herbicidal compound represented by the above Structure 3, 7, 10, 11, 13, 17, 23, 24, 25, 27, 28, 30 or 35, and the resistant level to each herbicidal compound was measured. In the table, the resistant levels to the herbicidal compound were represented by percentages of the total chlorophyll content of leaf pieces treated with the herbicidal compound to that of untreated leaf pieces.

In test [2] the test system is control recombinant tobacco. As to the kind of experiment: Leaf piece chlorophyll test, control recombinant tobacco. Particulars: Nicotiana tabacum, read-out: Resistant level to test compound; for activity at 0.3 ppm: 0.30 ppm. It counts as in vivo. Here is the method:
as §1, §2, §3
The level of resistance to PPO inhibitory type herbicidal compound represented by Structure 8 was confirmed quantitatively by testing tobacco into which the gene encoding the variant soybean PPO prepared in Example 13 was introduced according to the same manner as in Example 6. […]

Setting [3] is: bchH recombinant tobacco, treated vs untreated leaf pieces, Table 5.
The mark [4] stands for this setting: control recombinant tobacco, treated vs untreated leaf pieces, Table 5.

Like-named read-outs stand apart in the source and are kept apart here.

Consider `C#CCN1C(=O)COc2cc(F)c(-c3cnc(C(F)(F)F)n(C)c3=O)cc21` [Structure 35], for which the activity at 0.3 ppm in test [1] (setting [3]) amounted to 83.3%; in test [2] (setting [4]) it was 17.4%.

For the compound `C#CCOc1cc(-n2nc(C(C)(C)C)oc2=O)c(Cl)cc1Cl` [Structure 24], the activity at 10 ppm is 129% in test [1] (setting [3]) and 5.18% in test [2] (setting [4]).

Take `C#CCN1C(=O)COc2cc(F)c(-n3c(=O)cc(C(F)(F)F)n(C)c3=O)cc21` [Structure 17]: the results for the activity at 0.3 ppm in test [1] (setting [3]) and in test [2] (setting [4]) were 80.4% and 14.3%, respectively.

In the case of `CCOC(=O)COc1cc(-c2nn(C)c(OC(F)F)c2Cl)c(F)cc1Cl` [Structure 30], the activity at 3 ppm in test [1] came to 102%; in test [2], 4.24%.

On to `CCCCCOC(=O)COc1cc(N2C(=O)C3=C(CCCC3)C2=O)c(F)cc1Cl` [Structure 10], for which the activity at 10 ppm in test [1] (setting [3]) is 84%; in test [2] (setting [4]), 14.9%.

In the case of `O=[N+]([O-])c1ccc(Oc2c(Cl)cc(Cl)cc2Cl)cc1` [Structure 7], the activity at 30 ppm in test [1] (bchH recombinant tobacco, 30 ppm, treated vs untreated leaf pieces, Table 5) is 89.3%; in test [2] (control recombinant tobacco, 30 ppm, treated vs untreated leaf pieces, Table 5) it was 8.62%.

Regarding `CC(C)Oc1cc(-n2nc(C(C)(C)C)oc2=O)c(Cl)cc1Cl` [Structure 25], the activity at 10 ppm is 104% in test [1] (setting [3]) and 16% in test [2] (setting [4]).

As for `CCOC(=O)COc1cc(-n2ncc(C(F)(F)F)c(C)c2=O)c(F)cc1Cl` [Structure 27], the values for the activity at 10 ppm in test [1] (setting [3]) and in test [2] (setting [4]) were 86.8% and 16.8%, respectively.

For the compound `C#CCN1C(=O)COc2cc(F)c(N3C(=O)C4=C(CCCC4)C3=O)cc21` [Structure 11], the activity at 0.3 ppm in test [1] (setting [3]) is 78.1%; in test [2] (setting [4]) it was 5.51%.

Turning to `CCOC(=O)C(C)OC(=O)c1cc(Oc2ccc(C(F)(F)F)cc2Cl)ccc1[N+](=O)[O-]` (stereo not drawn) [Structure 3], the activity at 10 ppm in test [1] (setting [3]) turned out to be 114%; in test [2] (setting [4]), 9.94%.

Turning to `C#CCOc1cc(-n2nc3n(c2=O)CCCC3)c(Cl)cc1Cl` [Structure 23], the activity at 3 ppm came to 106% in test [1] (bchH recombinant tobacco, 3.0 ppm, treated vs untreated leaf pieces, Table 5) and 5.58% in test [2] (control recombinant tobacco, 3.0 ppm, treated vs untreated leaf pieces, Table 5).

In the case of `C#CCOc1cc(-n2ncc(C(F)(F)F)c(C)c2=O)c(F)cc1Cl` [Structure 28], the values for the activity at 0.3 ppm in test [1] (setting [3]) and in test [2] (setting [4]) were 72.2% and 8.79%, respectively.
